From patent publication US8546579B2, “Bicycloheteroaryl compounds as P2X7 modulators and uses thereof” (Evotec (US) Inc., priority 2006, dated 2013)

Each compound was assayed against T1, P2X7 receptor (Homo sapiens, UniProt Q99572) (assay: IL-1β release assay in differentiated THP-1 cells stimulated with BzATP (Example 9)). Conditions: 0.1 μM compound; differentiated THP-1 cells, BzATP 250 uM; "*" class symbols; read-out: IL-1β % Inhib. ("*" symbols: at 0.1 μM).
T1 construct: host or cells: THP-1 cells differentiated with LPS and IFN-γ
T1 sequence (Q99572 1-595): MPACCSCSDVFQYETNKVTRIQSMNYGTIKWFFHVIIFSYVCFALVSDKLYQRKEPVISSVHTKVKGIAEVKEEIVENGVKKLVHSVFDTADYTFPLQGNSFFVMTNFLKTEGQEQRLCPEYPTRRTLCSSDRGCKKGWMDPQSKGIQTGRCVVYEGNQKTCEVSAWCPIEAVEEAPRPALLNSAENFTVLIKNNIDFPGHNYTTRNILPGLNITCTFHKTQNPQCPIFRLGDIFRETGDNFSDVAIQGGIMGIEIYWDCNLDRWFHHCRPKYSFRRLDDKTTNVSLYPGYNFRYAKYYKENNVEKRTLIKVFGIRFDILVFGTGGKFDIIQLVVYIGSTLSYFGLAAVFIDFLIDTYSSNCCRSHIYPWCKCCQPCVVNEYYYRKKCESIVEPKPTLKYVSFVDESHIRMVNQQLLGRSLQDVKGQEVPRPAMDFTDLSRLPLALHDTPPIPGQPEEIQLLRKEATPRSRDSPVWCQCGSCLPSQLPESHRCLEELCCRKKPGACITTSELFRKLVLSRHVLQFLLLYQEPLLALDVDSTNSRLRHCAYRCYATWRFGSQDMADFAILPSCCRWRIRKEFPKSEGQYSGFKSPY
Assay type: cell-based
Parameters: inhibition: dose or concentration left out as unconfirmed
Method in brief: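 THP-1 cells differentiated 16 h with LPS and IFN-γ (100 ng/mL each), re-primed 2 h with LPS, then compound-pretreated 30 min before 250 uM BzATP for 45 min. Supernatant IL-1β quantified by ELISA; background-adjusted percent inhibition fitted to four-parameter logistic for IC50.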

| SMILES | inhibition at 0.1 µM |
| --- | --- |
| O=C(CCc1cccc(Cl)c1)Nc1cccc2c(=O)n(Cc3ccc(OC(F)(F)F)cc3)ccc12 [Compound 1610] | 0 to 25% |

Same assay, conditions: 0.1 μM compound; differentiated THP-1 cells, BzATP 250 uM; '*' class symbols; read-out: IL-1β % Inhib. (asterisk classes, 0.1 μM)

| SMILES | inhibition at 0.1 µM |
| --- | --- |
| COc1ccccc1CCC(=O)Nc1cccc2c(=O)n(CCN(C)C)ccc12 [Compound 1149] | 0 to 25% |

Same assay, conditions: 0.3 μM compound; differentiated THP-1 cells, BzATP 250 uM; "+" class symbols; read-out: IL-1β % Inhib. @ 0.3 μM

| SMILES | inhibition at 0.3 µM |
| --- | --- |
| CC1(C)CCCC(O)(CC(=O)Nc2cccc3c(=O)n(CCS(C)(=O)=O)ccc23)C1 (stereo not shown) [Compound 1629] | 26 to 50% |
| CC(C(=O)Nc1cccc2c(=O)n(CCS(C)(=O)=O)ccc12)c1ccc(Cl)cc1 (stereo not shown) [Compound 1631] | 0 to 25% |
| CC(c1ccccn1)n1ccc2c(NC(=O)Cc3cccc(C(F)(F)F)c3F)cccc2c1=O (stereo not shown) [Compound 1633, 2-(2-Fluoro-3-trifluoromethyl-phenyl)-N-[1-oxo-2-(1-pyridin-2-yl-ethyl)-1,2-dihydro-isoquinolin-5-yl]-acetamide] | ≥ 76% |
| O=C(Cc1ccc(Cl)c(C(F)(F)F)c1)Nc1cccc2c(=O)n(Cc3ccc(C(F)(F)F)nc3)ccc12 [Compound 1624, 2-(4-Chloro-3-trifluoromethyl-phenyl)-N-[1-oxo-2-(6-trifluoromethyl-pyridin-3-ylmethyl)-1,2-dihydro-isoquinolin-5-yl]-acetamide] | 26 to 50% |
| CN(C)CCn1ccc2c(NC(=O)C3(c4ccc(Cl)cc4)CCCC3)cccc2c1=O [Compound 1614] | 0 to 25% |

Same assay, conditions: 0.3 μM compound; differentiated THP-1 cells, BzATP 250 uM; '+' class symbols; read-out: IL-1β % Inhib. @ 0.3 μM

| SMILES | inhibition at 0.3 µM |
| --- | --- |
| COc1cc(CC(=O)Nc2cccc3c(=O)n(CC4CCOCC4)ccc23)cc(OC)c1 [Compound 1111] | 0 to 25% |
| O=C(Nc1cccc2c(=O)n(CC3CCOCC3)ccc12)c1cccc2ccccc12 [Compound 1096] | 0 to 25% |
| O=C(CCc1ccc2c(c1)OCO2)Nc1cccc2c(=O)n(Cc3cccnc3)ccc12 [Compound 1080] | 0 to 25% |
| Cc1ccc(C)c(C(=O)Nc2cccc3c(=O)n(CC4CCOCC4)ccc23)c1 [Compound 1088] | 0 to 25% |
| Cc1ccc(Cl)c(C(=O)Nc2cccc3c(=O)n(CC4CCOCC4)ccc23)c1 [Compound 1128] | 0 to 25% |
| CC(C)Cc1ccc(C(=O)Nc2cccc3c(=O)n(CC4CCOCC4)ccc23)cc1 [Compound 1136] | 0 to 25% |
| Cc1cccc(C(=O)Nc2cccc3c(=O)n(CCN4CCOCC4)ccc23)c1C [Compound 1192] | 26 to 50% |
| CN(C)CCn1ccc2c(NC(=O)c3cccc4ccccc34)cccc2c1=O [Compound 1151] | 0 to 25% |
| O=C(Nc1cccc2c(=O)n(CCN3CCOCC3)ccc12)c1cc(Cl)ccc1Cl [Compound 1190] | 0 to 25% |
| Cc1ccc(C(=O)Nc2cccc3c(=O)n(CCN(C)C)ccc23)c(C)c1 [Compound 1141] | 0 to 25% |
| CCOc1ccc(CC(=O)Nc2cccc3c(=O)n(CC4CCOCC4)ccc23)cc1 [Compound 1106] | 0 to 25% |
| O=C(Nc1cccc2c(=O)n(CC3CCOCC3)ccc12)c1ccc(Cl)cc1Cl [Compound 1083] | 0 to 25% |
| Cc1ccc(C(=O)Nc2cccc3c(=O)n(CC4CCOCC4)ccc23)cc1Cl [Compound 1113] | 0 to 25% |
| Cc1cccc(CCC(=O)Nc2cccc3c(=O)n(CCN(C)C)ccc23)c1 [Compound 1181] | 0 to 25% |
| CCOc1ccc(C(=O)Nc2cccc3c(=O)n(CC4CCOCC4)ccc23)cc1 [Compound 1091] | 0 to 25% |

Same assay, conditions: 0.3 μM compound; differentiated THP-1 cells, BzATP 250 uM; symbols + to ++++; read-out: IL-1β % Inhib. @ 0.3 μM

| SMILES | inhibition at 0.3 µM |
| --- | --- |
| CC(C)(C)Cn1ccc2c(NC(=O)Cc3csc4ccccc34)cccc2c1=O [Compound 1274] | 0 to 25% |
| COc1ccc(CCC(=O)Nc2cccc3c(=O)n(CCN4CCOCC4)ccc23)cc1 [Compound 1202] | 0 to 25% |
| Cc1cccc(CCC(=O)Nc2cccc3c(=O)n(Cc4cccnc4)ccc23)c1 [Compound 1369] | 0 to 25% |
| Cc1cccc(C(=O)Nc2cccc3c(=O)n(CCN4CCOCC4)ccc23)c1Cl [Compound 1239] | 0 to 25% |
| COCCn1ccc2c(NC(=O)Cc3ccc(OC)c(C)c3)cccc2c1=O [Compound 1337] | 0 to 25% |
| CC(C)(C)Cn1ccc2c(NC(=O)c3ccccc3Cl)cccc2c1=O [Compound 1244] | 0 to 25% |
| CC(=O)OCCn1ccc2c(NC(=O)Cc3ccc4c(c3)OCCO4)cccc2c1=O [Compound 1377] | 0 to 25% |
| CC(C)Cc1ccc(C(=O)Nc2cccc3c(=O)n(Cc4cccnc4)ccc23)cc1 [Compound 1372] | 0 to 25% |
| CC(=O)OCCn1ccc2c(NC(=O)Cc3cc(C(F)(F)F)ccc3C(F)(F)F)cccc2c1=O [Compound 1382] | 26 to 50% |
| Cc1ccc(Cl)cc1C(=O)Nc1cccc2c(=O)n(CC(C)(C)C)ccc12 [Compound 1283] | 26 to 50% |
| COCCn1ccc2c(NC(=O)CCc3ccc(C)cc3C)cccc2c1=O [Compound 1341] | 0 to 25% |
| CC(=O)OCCn1ccc2c(NC(=O)Cc3ccc(Cl)c(C(F)(F)F)c3)cccc2c1=O [Compound 1380, Acetic acid 2-{5-[2-(4-chloro-3-trifluoromethyl-phenyl)-acetylamino]-1-oxo-1H-isoquinolin-2-yl}-ethyl ester] | ≥ 76% |
| Cn1ccc2c(NC(=O)C3C[C@@H]4CC[C@H]3C4)cccc2c1=O (stereo partly shown) [Compound 1306] | 0 to 25% |
| COc1ccc(C(=O)Nc2cccc3c(=O)n(CCN4CCOCC4)ccc23)cc1C [Compound 1240] | 26 to 50% |
| COc1ccc(CC(=O)Nc2cccc3c(=O)n(CCN4CCOCC4)ccc23)cc1C [Compound 1234] | 0 to 25% |

Same assay, conditions: THP-1; read-out: IL-1β % Inhib.

| SMILES | inhibition |
| --- | --- |
| Cc1ccc(C(=O)Nc2cccc3c(=O)n(Cc4ccc(OC(F)(F)F)cc4)ccc23)c(C)c1 [Compound 1564] | 0 to 25% |
| Cc1ccc(Cl)cc1C(=O)Nc1cccc2c(=O)n(CCCN3CCCC3=O)ccc12 [Compound 1541] | 0 to 25% |
| CCOc1cccc(C(=O)Nc2cccc3c(=O)n(Cc4cccnc4)ccc23)c1 [Compound 1407] | 0 to 25% |
| COc1ccc(C(=O)Nc2cccc3c(=O)n(CCCN4CCCC4=O)ccc23)c(C)c1 [Compound 1493] | 0 to 25% |
| Cc1cccc(CCC(=O)Nc2cccc3c(=O)n(CCCN4CCCC4=O)ccc23)c1 [Compound 1542] | 0 to 25% |
| Cc1ccc(C)c(C(=O)Nc2cccc3c(=O)n(CCCN4CCCC4=O)ccc23)c1 [Compound 1510] | 0 to 25% |
| Cc1ccc(CC(=O)Nc2cccc3c(=O)n(CCCN4CCCC4=O)ccc23)cc1 [Compound 1524] | 0 to 25% |
| COc1ccccc1CCC(=O)Nc1cccc2c(=O)n(Cc3ccc(OC(F)(F)F)cc3)ccc12 [Compound 1571] | 0 to 25% |
| Cc1ccc(Cl)cc1C(=O)Nc1cccc2c(=O)n(CC3CCN(C)CC3)ccc12 [Compound 1487] | 0 to 25% |
| Cc1c(Cl)cccc1C(=O)Nc1cccc2c(=O)n(CCCN3CCCC3=O)ccc12 [Compound 1534] | 51 to 75% |
| COc1ccccc1CC(=O)Nc1cccc2c(=O)n(CCN(C)C)ccc12 [Compound 1409] | 0 to 25% |
| Cc1ccccc1CCC(=O)Nc1cccc2c(=O)n(CCN(C)C)ccc12 [Compound 1399] | 0 to 25% |
| Cc1cccc(C(=O)Nc2cccc3c(=O)n(Cc4ccc(OC(F)(F)F)cc4)ccc23)c1 [Compound 1567] | 0 to 25% |
| COc1ccc(CC(=O)Nc2cccc3c(=O)n(Cc4ccc(OC(F)(F)F)cc4)ccc23)cc1 [Compound 1583] | 26 to 50% |
| O=C(Nc1cccc2c(=O)n(Cc3ccc(OC(F)(F)F)cc3)ccc12)[C@@]12C[C@@H]3C[C@@H](C[C@@H]1C3)C2 [Compound 1594] | 0 to 25% |
| Cc1ccc(C)c(CC(=O)Nc2cccc3c(=O)n(Cc4ccc(OC(F)(F)F)cc4)ccc23)c1 [Compound 1554] | 0 to 25% |
| O=C(CCc1ccccc1Cl)Nc1cccc2c(=O)n(Cc3ccc(OC(F)(F)F)cc3)ccc12 [Compound 1557] | 0 to 25% |
| COc1ccccc1CCC(=O)Nc1cccc2c(=O)n(CCCN3CCCC3=O)ccc12 [Compound 1518] | 0 to 25% |
| Cc1ccc(CCC(=O)Nc2cccc3c(=O)n(CC4CCN(C)CC4)ccc23)c(C)c1 [Compound 1491] | 0 to 25% |
| O=C(CCCc1ccccc1)Nc1cccc2c(=O)n(Cc3ccc(OC(F)(F)F)cc3)ccc12 [Compound 1586] | 0 to 25% |
| Cc1cccc(C(=O)Nc2cccc3c(=O)n(CCCN4CCCC4=O)ccc23)c1 [Compound 1513] | 0 to 25% |

Same assay, conditions: THP-1 cells, BzATP-stimulated IL-1β release, four parameter logistic fit

| SMILES | IC50 |
| --- | --- |
| CN(C)CCn1ccc2c(NC(=O)c3ccc(S(C)(=O)=O)cc3)cccc2c1=O [Compound 1008] | > 1000 nM |
| CC1(C)CCCC(O)(CC(=O)Nc2cccc3c(=O)n(CCS(C)(=O)=O)ccc23)C1 (stereo not shown) [Compound 1629] | 457 nM |
| CC(C(=O)Nc1cccc2c(=O)n(CCS(C)(=O)=O)ccc12)c1ccc(Cl)cc1 (stereo not shown) [Compound 1631] | > 1000 nM |
| CC(=O)OCCn1ccc2c(NC(=O)Cc3ccc4c(c3)OCCO4)cccc2c1=O [Compound 1377] | > 1000 nM |
| CC(c1ccccn1)n1ccc2c(NC(=O)Cc3cccc(C(F)(F)F)c3F)cccc2c1=O (stereo not shown) [Compound 1633, 2-(2-Fluoro-3-trifluoromethyl-phenyl)-N-[1-oxo-2-(1-pyridin-2-yl-ethyl)-1,2-dihydro-isoquinolin-5-yl]-acetamide] | 25.5 nM |
| O=C(Cc1ccc(Cl)c(C(F)(F)F)c1)Nc1cccc2c(=O)n(Cc3ccc(C(F)(F)F)nc3)ccc12 [Compound 1624, 2-(4-Chloro-3-trifluoromethyl-phenyl)-N-[1-oxo-2-(6-trifluoromethyl-pyridin-3-ylmethyl)-1,2-dihydro-isoquinolin-5-yl]-acetamide] | 365 nM |
| CC(=O)OCCn1ccc2c(NC(=O)Cc3cc(C(F)(F)F)ccc3C(F)(F)F)cccc2c1=O [Compound 1382] | 602 nM |
| CC(=O)OCCn1ccc2c(NC(=O)Cc3ccc(Cl)c(C(F)(F)F)c3)cccc2c1=O [Compound 1380, Acetic acid 2-{5-[2-(4-chloro-3-trifluoromethyl-phenyl)-acetylamino]-1-oxo-1H-isoquinolin-2-yl}-ethyl ester] | 5.33 nM |
| CN(C)CCn1ccc2c(NC(=O)C3(c4ccc(Cl)cc4)CCCC3)cccc2c1=O [Compound 1614] | > 1000 nM |
